# In patent US20260325685A1, “Radiopharmaceutical Compositions Targeting Carbonic Anhydrase IX and Uses Thereof” (RayzeBio, Inc., priority 2023, published 2026):
# Tests used:
# [1] = target: T1, human CA-XII (Homo sapiens, UniProt O43570); assay: Surface Plasmon Resonance (SPR) binding kinetics to recombinant human CA-XII (Biacore 8K, single-cycle kinetics, 1:1 binding model); conditions: Chelated Metal: Lu-175, 25° C., pH 7.4, read-out: CAXII KD
# T1 construct: purchased Creative BioMart CA12-261H
# T1 sequence (O43570 25-354): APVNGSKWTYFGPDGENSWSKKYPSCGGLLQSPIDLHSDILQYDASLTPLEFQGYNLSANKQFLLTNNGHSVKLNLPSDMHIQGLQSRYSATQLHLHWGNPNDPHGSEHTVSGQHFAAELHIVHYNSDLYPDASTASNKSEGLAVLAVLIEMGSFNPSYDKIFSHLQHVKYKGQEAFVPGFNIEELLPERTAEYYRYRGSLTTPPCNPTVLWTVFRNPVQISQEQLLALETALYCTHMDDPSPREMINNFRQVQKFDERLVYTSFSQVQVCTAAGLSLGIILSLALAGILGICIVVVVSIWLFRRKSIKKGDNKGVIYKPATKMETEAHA
# Procedure, shortened: (§1)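 First, ligand at 10 μg/mL was captured on streptavidin to 1200-1800 RU, with 180 s injection for CA-IX and 75 s for CA-XII. Next, compound (100-0.39 nM, 9 levels) in PBS-P+ with 1% DMSO was injected. Association lasted 120 s and dissociation 1200 s at 25° C.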
# [2] = target: T2, human CA-IX (Homo sapiens, UniProt Q16790); assay: Surface Plasmon Resonance (SPR) binding kinetics to recombinant human CA-IX (Biacore 8K, single-cycle kinetics, 1:1 binding model); conditions: Chelated Metal: Lu-175; SPR, 25° C., pH 7.4; read-out: CAIX KD
# T2 construct: purchased Acro CA9-H82E3
# Procedure, shortened: as §1
SMILES,Kd [1],Kd [2]
N[C@@H](CC(=O)N[C@@H](CC(=O)N1CCN(C(=O)CN2CCN(CC(=O)O)CCN(CC(=O)O)CCN(CC(=O)O)CC2)C[C@H]1C(=O)NCCn1cc(C23CC(C(=O)Nc4nnc(S(N)(=O)=O)s4)(C2)C3)nn1)C(=O)O)C(=O)O.[Lu+3] [Compound 109.13],2.5 to 10 nM,< 1 nM
NS(=O)(=O)c1nnc(NC(=O)C23CC(c4cn(CCNC(=O)[C@@H]5CN(C(=O)CN6CCN(CC(=O)O)CCN(CC(=O)O)CCN(CC(=O)O)CC6)CCN5C(=O)C[C@H](NC(=O)C[C@H](NC(=O)CCCc5ccc(I)cc5)C(=O)O)C(=O)O)nn4)(C2)C3)s1.[Lu+3] [Compound 109.14],2.5 to 10 nM,< 1 nM
NS(=O)(=O)c1nnc(NC(=O)C23CC(c4cn(CCNC(=O)[C@@H]5CN(C(=O)CN6CCN(CC(=O)O)CCN(CC(=O)O)CCN(CC(=O)O)CC6)CCN5C(=O)C[C@H](NC(=O)C[C@H](NC(=O)c5n[nH]c6ccc(F)cc56)C(=O)O)C(=O)O)nn4)(C2)C3)s1.[Lu+3] [Compound 109.15],2.5 to 10 nM,< 1 nM
NS(=O)(=O)c1nnc(NC(=O)C23CC(c4cn(CCNC(=O)[C@@H]5CN(C(=O)CN6CCN(CC(=O)O)CCN(CC(=O)O)CCN(CC(=O)O)CC6)CCN5C(=O)C[C@H](NC(=O)C[C@H](NC(=O)c5ccc(S(F)(F)(F)(F)F)cc5)C(=O)O)C(=O)O)nn4)(C2)C3)s1.[Lu+3] [Compound 109.16],2.5 to 10 nM,< 1 nM
NS(=O)(=O)c1nnc(NC(=O)C23CC(c4cn(CCNC(=O)[C@@H]5CN(C(=O)CN6CCN(CC(=O)O)CCN(CC(=O)O)CCN(CC(=O)O)CC6)CCN5C(=O)C[C@H](NC(=O)C[C@H](NC(=O)c5coc(C(F)(F)F)n5)C(=O)O)C(=O)O)nn4)(C2)C3)s1.[Lu+3] [Compound 109.17],> 10 nM,2.5 to 10 nM
NS(=O)(=O)c1nnc(NC(=O)C23CC(c4cn(CCNC(=O)[C@@H]5CN(C(=O)CN6CCN(CC(=O)O)CCN(CC(=O)O)CCN(CC(=O)O)CC6)CCN5C(=O)C[C@H](NC(=O)C[C@H](NC(=O)CC5CC6(CCC6)C5)C(=O)O)C(=O)O)nn4)(C2)C3)s1.[Lu+3] [Compound 109.18],1 to 2.5 nM,< 1 nM
NS(=O)(=O)c1nnc(NC(=O)C23CC(c4cn(CCNC(=O)[C@@H]5CN(C(=O)CN6CCN(CC(=O)O)CCN(CC(=O)O)CCN(CC(=O)O)CC6)CCN5C(=O)C[C@H](NC(=O)C[C@H](NC(=O)c5ccc(C6CC6)cn5)C(=O)O)C(=O)O)nn4)(C2)C3)s1.[Lu+3] [Compound 109.19],1 to 2.5 nM,< 1 nM
NS(=O)(=O)c1nnc(NC(=O)C23CC(c4cn(CCNC(=O)[C@@H]5CN(C(=O)CN6CCN(CC(=O)O)CCN(CC(=O)O)CCN(CC(=O)O)CC6)CCN5C(=O)C[C@H](NC(=O)C[C@H](NC(=O)Cc5ccc(S(F)(F)(F)(F)F)cc5)C(=O)O)C(=O)O)nn4)(C2)C3)s1.[Lu+3] [Compound 109.20],2.5 to 10 nM,< 1 nM
NS(=O)(=O)c1nnc(NC(=O)C23CC(c4cn(CCNC(=O)[C@@H]5CN(C(=O)CN6CCN(CC(=O)O)CCN(CC(=O)O)CCN(CC(=O)O)CC6)CCN5C(=O)C[C@H](NC(=O)C[C@H](NCc5ccc(C6CC6)cc5)C(=O)O)C(=O)O)nn4)(C2)C3)s1.[Lu+3] [Compound 109.21],> 10 nM,< 1 nM
CC1(c2ccc(C(=O)N[C@@H](CC(=O)N[C@@H](CC(=O)N3CCN(C(=O)CN4CCN(CC(=O)O)CCN(CC(=O)O)CCN(CC(=O)O)CC4)C[C@H]3C(=O)NCCn3cc(C45CC(C(=O)Nc6nnc(S(N)(=O)=O)s6)(C4)C5)nn3)C(=O)O)C(=O)O)cc2)CC1.[Lu+3] [Compound 109.22],2.5 to 10 nM,1 to 2.5 nM
NS(=O)(=O)c1nnc(NC(=O)C23CC(c4cn(CCNC(=O)[C@@H]5CN(C(=O)CN6CCN(CC(=O)O)CCN(CC(=O)O)CCN(CC(=O)O)CC6)CCN5C(=O)C[C@H](NC(=O)C[C@H](NC(=O)c5cnc(C6CC6)nc5)C(=O)O)C(=O)O)nn4)(C2)C3)s1.[Lu+3] [Compound 109.23],> 10 nM,2.5 to 10 nM
NS(=O)(=O)c1nnc(NC(=O)C23CC(c4cn(CCNC(=O)[C@@H]5CN(C(=O)CN6CCN(CC(=O)O)CCN(CC(=O)O)CCN(CC(=O)O)CC6)CCN5C(=O)C[C@H](NC(=O)C[C@H](NC(=O)c5ccc(C6(C(F)(F)F)CC6)cc5)C(=O)O)C(=O)O)nn4)(C2)C3)s1.[Lu+3] [Compound 109.24],2.5 to 10 nM,1 to 2.5 nM
NS(=O)(=O)c1nnc(NC(=O)C23CC(c4cn(CCNC(=O)[C@@H]5CN(C(=O)CN6CCN(CC(=O)O)CCN(CC(=O)O)CCN(CC(=O)O)CC6)CCN5C(=O)C[C@H](NC(=O)C[C@H](NC(=O)c5ccc(C6(C(F)(F)F)CC6)cn5)C(=O)O)C(=O)O)nn4)(C2)C3)s1.[Lu+3] [Compound 109.25],2.5 to 10 nM,< 1 nM
CC(C)(C)c1ccc(C(=O)N[C@@H](CC(=O)N[C@@H](CC(=O)N2CCN(C(=O)CN3CCN(CC(=O)O)CCN(CC(=O)O)CCN(CC(=O)O)CC3)C[C@H]2C(=O)NCCn2cc(C34CC(C(=O)Nc5nnc(S(N)(=O)=O)s5)(C3)C4)nn2)C(=O)O)C(=O)O)cc1.[Lu+3] [Compound 109.26],2.5 to 10 nM,1 to 2.5 nM
CC(C)(C)c1ccc(CC(=O)N[C@@H](CC(=O)N[C@@H](CC(=O)N2CCN(C(=O)CN3CCN(CC(=O)O)CCN(CC(=O)O)CCN(CC(=O)O)CC3)C[C@H]2C(=O)NCCn2cc(C34CC(C(=O)Nc5nnc(S(N)(=O)=O)s5)(C3)C4)nn2)C(=O)O)C(=O)O)cc1.[Lu+3] [Compound 109.27],2.5 to 10 nM,1 to 2.5 nM
NS(=O)(=O)c1nnc(NC(=O)C23CC(c4cn(CCNC(=O)[C@@H]5CN(C(=O)CN6CCN(CC(=O)O)CCN(CC(=O)O)CCN(CC(=O)O)CC6)CCN5C(=O)C[C@H](NC(=O)C[C@H](NC(=O)c5n[nH]nc5C(F)(F)F)C(=O)O)C(=O)O)nn4)(C2)C3)s1.[Lu+3] [Compound 109.28],1 to 2.5 nM,< 1 nM
NS(=O)(=O)c1nnc(NC(=O)C23CC(c4cn(CCNC(=O)[C@@H]5CN(C(=O)CN6CCN(CC(=O)O)CCN(CC(=O)O)CCN(CC(=O)O)CC6)CCN5C(=O)C[C@H](NC(=O)C[C@H](NCC5CC5)C(=O)O)C(=O)O)nn4)(C2)C3)s1.[Lu+3] [Compound 109.29],> 10 nM,2.5 to 10 nM
Cc1cc(C2CC2)ccc1C(=O)N[C@@H](CC(=O)N[C@@H](CC(=O)N1CCN(C(=O)CN2CCN(CC(=O)O)CCN(CC(=O)O)CCN(CC(=O)O)CC2)C[C@H]1C(=O)NCCn1cc(C23CC(C(=O)Nc4nnc(S(N)(=O)=O)s4)(C2)C3)nn1)C(=O)O)C(=O)O.[Lu+3] [Compound 109.30],2.5 to 10 nM,< 1 nM
NS(=O)(=O)c1nnc(NC(=O)C23CC(c4cn(CCNC(=O)[C@@H]5CN(C(=O)CN6CCN(CC(=O)O)CCN(CC(=O)O)CCN(CC(=O)O)CC6)CCN5C(=O)C[C@H](NC(=O)C[C@H](NC(=O)c5n[nH]c6ccc(O)cc56)C(=O)O)C(=O)O)nn4)(C2)C3)s1.[Lu+3] [Compound 109.31],2.5 to 10 nM,< 1 nM
NS(=O)(=O)c1nnc(NC(=O)C23CC(c4cn(CCNC(=O)[C@@H]5CN(C(=O)CN6CCN(CC(=O)O)CCN(CC(=O)O)CCN(CC(=O)O)CC6)CCN5C(=O)C[C@H](NC(=O)C[C@H](NC(=O)Cc5n[nH]c6ccc(O)cc56)C(=O)O)C(=O)O)nn4)(C2)C3)s1.[Lu+3] [Compound 109.32],> 10 nM,< 1 nM
